Consider one compound from patent publication US11419876B2, “Mirtazapine as a pre-shipping inhibitor of bovine respiratory disease” (Iowa State University Research Foundation, Inc., priority 2019, dated 2022).

In this test the test system is BRD. Briefly: Pre-shipment mirtazapine treatment for BRD prevention at the feedlot. The class given is in vivo, ranch heifer calves. As to the method:
An initial study was performed to confirm BRD prevention at the feedlot using a pre-shipment treatment comprising mirtazapine. A total of 24 ranch heifer calves that were recently weaned (mixed breeds, approximately 350 lbs, 6 months old) were randomly assigned to two different treatment groups. One group was fed mirtazapine in a standard starter feed at 5 mg/kg/day as a pre-shipment treatment. The treatment dosage was extrapolated from feline dosing. After one week, calves were shipped from southern Missouri to Iowa. For the next […], calves were monitored for BRD which was ascribed to any animal showing respiratory signs (i.e. coughing, runny nose or eyes, labored or rapid breathing) plus a rectal temperature >104° F. BRD(+) calves were then treated with florfenicol+flunixin. Calves requiring a second treatment received ceftiofur plus tulathromycin, while the third treatment consisted of enrofloxacin, if needed. At the end of the study calves were sold as seedstock and were kept out of the food chain.
The efficacy of the mirtazapine as a pre-shipment treatment for preventing BRD was assessed by various clinical parameters, as shown in Table 1 and FIG. 1.
The % morbidity equals the % of calves that developed BRD in the first six weeks. The % mortality equals the percent of BRD(+) calves that died of the disease. The % retreats equals the % of BRD(+) calves that required >2 treatments for BRD once developed. The data are compared to Control calves that were not fed mirtazapine prior to shipping to a feedlot (“None”).

The mark [1] stands for this setting: fed in starter feed at 5 mg/kg/day for one week pre-shipment, BRD(+) calves.

With `CN1CCN2c3ncccc3Cc3ccccc3C2C1` (stereo not drawn) [Mirtazapine, 1,2,3,4,10,14b-hexahydro-2-methyl-pyrazino[2,1-a]pyrido[2,3-c] benzazepine], where the note is “fed in starter feed at 5 mg/kg/day for one week pre-shipment, % of calves that developed BRD in the first six weeks”, the “% Morbidity (% of calves that developed BRD)” value was 42%. Besides, under setting [1], the “% Mortality (percent of BRD(+) calves that died of the disease)” value is recorded as 0% and the “% Retreats (% of BRD(+) calves that required >2 treatments for BRD)” value turned out to be 11%. In addition, for the setting “fed in starter feed at 5 mg/kg/day for one week pre-shipment, after shipping to feedlot”, the “Avg. days to onset BRD” value is on record as 7.3 days. For the same compound, the “Avg. Rectal Temp at BRD” value (fed in starter feed at 5 mg/kg/day for one week pre-shipment, at clinical presentation with BRD) is reported as 104.2 degrees F. The “Effect on morbidity, mortality and severity of BRD (in words)” value (fed to calves for one week prior to shipping, versus control calves not fed mirtazapine) was “reduces the morbidity, mortality, and severity”.
